The target in one assay is T1, human GPR40 (Homo sapiens, UniProt O14842).
T1 construct: expressed in transfected cells; host or cells: CHO cells
T1 sequence (O14842 whole entry): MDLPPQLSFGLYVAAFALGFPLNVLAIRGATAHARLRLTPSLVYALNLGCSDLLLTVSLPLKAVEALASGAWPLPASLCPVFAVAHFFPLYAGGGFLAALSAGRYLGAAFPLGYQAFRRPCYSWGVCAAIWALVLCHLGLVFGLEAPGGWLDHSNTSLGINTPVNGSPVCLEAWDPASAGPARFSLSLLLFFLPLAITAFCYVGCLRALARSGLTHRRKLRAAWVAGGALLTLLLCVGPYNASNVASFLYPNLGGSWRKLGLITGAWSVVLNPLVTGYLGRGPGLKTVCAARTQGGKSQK
Nature of the assay: Cell-based aequorin assay. Conditions: CHO cells stably transfected with GPR40 and aequorin; 0.01% HSA; aequorin luminescence; read-out: Relative EC50. The procedure: Cell-based aequorin assays were employed to characterize the modulatory activity of compounds on the GPR40 signaling pathway. In an exemplary assay, CHO cells were stably transfected with both GPR40 and Aequorin (Euroscreen). Cells were detached from the tissue culture dish with 2 mL of trypsin (0.25% (w/v)). Trypsinization was halted with 28 mL of Hanks Buffered Salt Solution containing 20 mM Hepes (H/HBSS) and 0.01% fatty acid-free human serum albumin (HSA). Coelantrazine is added to 1 ug/mL, and the cells were incubated for 2 hours at room temperature. Compounds were dissolved in DMSO for preparation of 10 mM stock solutions. Compounds were diluted in H/HBSS containing 0.01% HSA. Serial dilutions of the test compounds were prepared to determine dose response.
Aequorin luminescence measurements were made using an EG&G Berthold 96-well luminometer, and the response was measured over a 20 second interval after cells and compounds were mixed. The maximum relative light units was plotted to determine dose response. The EC50 (effective concentration to reach 50% maximal response) was determined from the dose response plot.
Table 1 presents representative data (EC50 values) obtained for exemplary compounds of the invention for the relative activation of human GPR40. […]
What is called EC50 is the midpoint of the concentration-response curve. Regarding `CC#C[C@@H](CC(=O)O)c1ccc(OC2CCc3cc(-c4cccs4)ccc32)cc1` (stereo partly drawn) [Example 4, (3S)-3-[4-(5-Thiophen-2-yl-indan-1-yloxy)-phenyl]-hex-4-ynoic acid], the half-maximal effective concentration (EC50) fell in the range of 0.01 to 0.1 µM.
The same measure, in the same setting: to `CC#C[C@@H](CC(=O)O)c1ccc(OC2CCc3c(-c4cccc(OCC)c4)cccc32)cc1` (stereo partly drawn) [Example 9, (3S)-3-{4-[4-(3-Ethoxy-phenyl)-indan-1-yloxy]-phenyl}-hex-4-ynoic acid] belongs 1 to 10 µM.
The same measure, in the same setting: as for `Cn1ccnc1[C@@H](CC(=O)O)c1ccc(OCc2ccc3c(c2)C(C)(C)CCC3)cc1` [Example 86, (S)-3-(4-((8,8-Dimethyl-5,6,7,8-tetrahydronaphthalen-2-yl)methoxy)phenyl)-3-(1-methyl-1H-imidazol-2-yl)propanoic acid], the figure is 0.1 to 1 µM; as for `C[C@H](Oc1ccc([C@H](CC(=O)O)c2nccn2C)cc1)c1ccc2c(c1)C(C)(C)CCC2(C)C` [Example 87, (3S)-3-(1-Methyl-1H-imidazol-2-yl)-3-(4-(1-(5,5,8,8-tetramethyl-5,6,7,8-tetrahydronaphthalen-2-yl)ethoxy)phenyl)propanoic acid], more than 10 µM.
Same read-out and setting: to `CCC1(CC)CCC(C)(C)c2ccc(COc3ccc([C@H](CC(=O)O)c4nccn4C)cc3)cc21` [Example 88, (S)-3-(4-((8,8-Diethyl-5,5-dimethyl-5,6,7,8-tetrahydronaphthalen-2-yl)methoxy)phenyl)-3-(1-methyl-1H-imidazol-2-yl)propanoic acid] belongs 0.1 to 1 µM; to `CC1(C)CCC(C)(C)c2cc(COc3ccc([C@H](CC(=O)O)c4ccc(F)cc4)cc3)ccc21` [Example 89, (S)-3-(4-Fluorophenyl)-3-(4-((5,5,8,8-tetramethyl-5,6,7,8-tetrahydronaphthalen-2-yl)methoxy)phenyl)propanoic acid], 0.1 to 1 µM; to `CC1(C)CCC(C)(C)c2cc(COc3ccc([C@@H](CC(=O)O)c4ccc(F)cc4)cc3)ccc21` [Example 90, (R)-3-(4-Fluorophenyl)-3-(4-((5,5,8,8-tetramethyl-5,6,7,8-tetrahydronaphthalen-2-yl)methoxy)phenyl)propanoic acid], 1 to 10 µM.
Turning to `Cn1ccnc1[C@@H](CC(=O)O)c1ccc(OCc2cc3c(cc2Br)C(C)(C)CCC3(C)C)cc1` [Example 91, (S)-3-(4-((3-Bromo-5,5,8,8-tetramethyl-5,6,7,8-tetrahydronaphthalen-2-yl)methoxy)phenyl)-3-(1-methyl-1H-imidazol-2-yl)propanoic acid], the EC50 lay within 0.1 to 1 µM.
The same measure, in the same setting: to `Cn1ccnc1[C@@H](CC(=O)O)c1ccc(OCc2cc3c(cc2C2CC2)C(C)(C)CCC3(C)C)cc1` [Example 92, (S)-3-(4-((3-Cyclopopyl-5,5,8,8-tetramethyl-5,6,7,8-tetrahydronaphthalen-2-yl)methoxy)phenyl)-3-(1-methyl-1H-imidazol-2-yl)propanoic acid] belongs more than 10 µM; to `Cc1cc2c(cc1COc1ccc([C@H](CC(=O)O)c3nccn3C)cc1)C(C)(C)CCC2(C)C` [Example 93, (S)-3-(4-((3-Methyl-5,5,8,8-tetramethyl-5,6,7,8-tetrahydronaphthalen-2-yl)methoxy)phenyl)-3-(1-methyl-1H-imidazol-2-yl)propanoic acid], 0.1 to 1 µM; to `CCc1cc2c(cc1COc1ccc([C@H](CC(=O)O)c3nccn3C)cc1)C(C)(C)CCC2(C)C` [Example 94, (S)-3-(4-((3-Ethyl-5,5,8,8-tetramethyl-5,6,7,8-tetrahydronaphthalen-2-yl)methoxy)phenyl)-3-(1-methyl-1H-imidazol-2-yl)propanoic acid], 0.1 to 1 µM.

A further assay deals with islet cells. The assay can be described thus: Insulin secretion assay, human islet cells. The note with it: KRBH with 11.2 mM glucose, insulin by SPA, read-out: EC50, stimulation of insulin secretion from islet cells. It counts as cell-based. As for the experimental part: Human islets were isolated from cadaveric donors. Islets were treated with trypsin (0.25% (w/v) and cells were seeded in 96-well plates containing 3,000 cells per well. Cells were cultured in Roswell Park Memorial Institute (RMPI) media containing 10% fetal bovine serum.
For determination of insulin secretion, media was removed from islet cells and replaced with Krebs-Ringer bicarbonate buffer containing 10 mM HEPES (KRBH) and 2 mM glucose. After one hour incubation, media was replaced with KRBH containing 11.2 mM glucose and test compounds. Insulin released into the medium from the islet cells was measured using scintillation proximity assay (SPA).
For the compound `CC#C[C@@H](CC(=O)O)c1ccc(OC2CCc3cc(-c4cccs4)ccc32)cc1` (stereo partly drawn) [Example 4, (3S)-3-[4-(5-Thiophen-2-yl-indan-1-yloxy)-phenyl]-hex-4-ynoic acid], the EC50 is less than 1 µM.
The same measure, in the same setting: to `CC#C[C@@H](CC(=O)O)c1ccc(OC2CCc3c(-c4cccc(OCC)c4)cccc32)cc1` (stereo partly drawn) [Example 9, (3S)-3-{4-[4-(3-Ethoxy-phenyl)-indan-1-yloxy]-phenyl}-hex-4-ynoic acid] belongs less than 1 µM.

The values above are taken from patent US7582803B2 (Amgen Inc., priority 2005, dated 2009).
